Assay results as given in article PMC11898701, “Evaluating Therapeutic Efficacy of the Vascular Disrupting Agent OXi8007 Against Kidney Cancer in Mice” (Cancers, 2025).

Columns and labels:
[1] = system: subcutaneous Renca tumors; design: method as in PMID 33954115; details: 10 mg/kg, day 14; cited from earlier work
[2] = system: orthotopic Renca-luc tumors; test: Long-term therapy with OXi8007 and/or cabozantinib; format: in vivo, mouse
Protocol: (§1) OXi8007, synthesized by the Pinney Laboratory using published procedures, was dissolved in saline, verified to be in the pH range 7.3 to 7.5, and dosed at 250 mg/kg (IP). Cabozantinib (in PEG400 and ultrapure H2O (Milli-Q)) was administered at 3 mg/kg by oral gavage. Anti-PD-1 (10 mg/kg, Bio X Cell, Lebanon, NH, USA) and anti-CTLA-4 (5 mg/kg, Bio X Cell, Lebanon, NH) solutions were administered (IP) on the day before OXi8007 […].
We evaluated the longitudinal effects of OXi8007 alone and in combination with drugs currently favored for treating kidney cancer. For Renca-luc tumor-bearing mice, BLI was performed at least once a week to estimate tumor size, and mice were weighed weekly to adjust the dose as needed. Two treatment cohorts examined syngeneic orthotopic Renca-luc tumors in male BALB/c mice. Treatment started when the tumors reached about 1 × 10^6 photons/s peak total flux on BLI. The first cohort examined OXi8007 with cabozantinib. Mice were divided into four groups. Mice were assigned to groups as soon as there were sufficient to add the same numbers of animals to each group. The specific assignment was defined using the random number function in Excel. […] The second cohort was treated with CKIs and OXi8007 using four groups: Group 5 (OXi8007 + anti-PD-1 (10 mg/kg) + anti-CTLA-4 (5 mg/kg); n = 4), Group 6 (saline + anti-PD-1+ anti-CTLA-4; n = 3), Group 7 (saline + anti-PD-1; n = 3), and Group 8 (saline + anti-CTLA-4; n = 4). CKI antibodies were administered thrice weekly (M, W, F) for the first two weeks after the first treatment with OXi8007, which was administered twice weekly. […] Initial tumor growth was confirmed by palpation, and the mice were assigned to groups such that the first mouse with a confirmed tumor was assigned to Group 5, next to Group 6, etc., ensuring that all groups had both faster- and slower-growing tumors. […] Tumor size (BLI signal) and mouse body weights were compared using an ANOVA and multiple comparisons at a significance level of p < 0.05. Kaplan–Meier survival curves were compared using a non-parametric log-rank test using SAS software (SAS Institute Inc., SAS Viya for learners 4, Cary, NC, USA).

[3] = system: orthotopic XP258 human tumor xenografts; test: Long-term therapy of XP258 human tumor xenografts; format: in vivo, mouse; details: XP258 in NOD/SCID mice; OXi8007 250 mg/kg IP twice weekly, cabozantinib 3 mg/kg oral daily
Source text: The animal procedures were approved by the UT Southwestern Medical Center Institutional Animal Care and Use Committee under APNs 2017-102152 and 2018-102344-CORE. Renca-luc orthotopic tumors were induced by inserting tumor tissue (~1 mm^3) harvested from a donor mouse into the right kidney of syngeneic BALB/c mice (age 8 weeks, male and female; Envigo, Indianapolis, IN, USA), as described previously. Orthotopic XP258 tumors (derived from a patient with pT3aN0M1 clear cell RCC) were obtained from the UT Southwestern Kidney Cancer SPORE [53, 54] and maintained by serial passage. Tumors were induced by inserting tumor tissues from a donor tumor into the left kidney capsule of female NOD/SCID mice (Envigo).
as §1
We evaluated the longitudinal effects of OXi8007 alone and in combination with drugs currently favored for treating kidney cancer. For Renca-luc tumor-bearing mice, BLI was performed at least once a week to estimate tumor size, and mice were weighed weekly to adjust the dose as needed. Two treatment cohorts examined syngeneic orthotopic Renca-luc tumors in male BALB/c mice. Treatment started when the tumors reached about 1 × 10^6 photons/s peak total flux on BLI. The first cohort examined OXi8007 with cabozantinib. Mice were divided into four groups. Mice were assigned to groups as soon as there were sufficient to add the same numbers of animals to each group. The specific assignment was defined using the random number function in Excel. As such, each group included both faster- and slower-growing tumors. […]

In the case of `COc1cc2nccc(Oc3ccc(NC(=O)C4(C(=O)Nc5ccc(F)cc5)CC4)cc3)c2cc1OC` [cabozantinib, reference compound], the Tumor size reduction [1] is given as 50%, the “Body weight versus untreated control mice” value ([2]; Renca-luc BALB/c mice, over course of treatment) is given as “significant weight loss” and the “Tumor growth delay (BLI)” value ([2]; Renca-luc, versus control) is given as “significant tumor growth delay”. The Median survival time ([2]; Renca-luc, OXi8007 250 mg/kg IP twice weekly, cabozantinib 3 mg/kg oral daily) was 64 days and the Survival versus controls [3] was “significantly enhanced survival”.
